43 molecules from ChEMBL document CHEMBL5634128, “Development of chalcone-like derivatives and their biological and mechanistic investigations as novel influenza nuclear export inhibitors” (Eur J Med Chem, 2023) can be followed below.

The subject of data set [1] is Influenza A virus. Description: Anti-influenza activity against Influenza A virus A/Goose/Guangdong/SH7/2013 (H5N1) infected in chicken embryo fibroblast assessed as inhibition of virus-induced cytopathic effect. In kind it is functional. Background: Cytopathic effects are the visible damage that an infection or toxin causes in cultured cells.
Data set [2] is described as follows: Cytotoxicity against chicken embryo fibroblast cells assessed as reduction in cell growth at 50 uM by CCK-8 assay relative to control. In kind it is toxicity, cell-based, Gallus gallus. As to conditions: chicken embryo fibroblast cells, read-out: Activity. In general terms: Formazan colour is commonly taken as a measure of viable cells.

Each structure is given as a SMILES string.

For the molecule `COc1cccc(OC)c1/C=C/C(=O)/C=C/c1ccc(-c2cccnc2)cc1`, the “inhibition (INH)” value in data set [1] is given as 25.98%. In addition, the percent cell viability relative to control at 50 µM in data set [2] stood at 111%.
`COc1cccc(OC)c1/C=C/C(=O)/C=C/c1nc(C)c(C)nc1C`: the “inhibition (INH)” value in data set [1] came to 71.53%. Besides, the percent cell viability relative to control at 50 µM in data set [2] turned out to be 83.8%.
Take `COc1cccc(OC)c1/C=C/C(=O)/C=C/c1ccc(-n2ccnc2C)cc1`: in data set [1], the “inhibition (INH)” value turned out to be 28.99%. In addition, in data set [2], the percent cell viability relative to control at 50 µM was 61%.
For the molecule `COc1cccc(OC)c1C(=O)N/N=C/c1ccc(C(C)(C)C)cc1`, the “inhibition (INH)” value in data set [1] was 38.93%. The percent cell viability relative to control at 50 µM in data set [2] was determined as 57.7%.
In the same order, the values of `COc1cccc(OC)c1/C=C1\CCC/C(=C\c2ccc([N+](=O)[O-])cc2)C1=O` are 48.07% and 66.9%.
With `COc1cccc(OC)c1/C=C/C(=O)/C=C/c1ccc(N2CCN(C)CC2)cc1`, the “inhibition (INH)” value in data set [1] worked out at 57.74%. The percent cell viability relative to control at 50 µM in data set [2] worked out at 94.7%.
Turning to `COc1cccc(OC)c1/C=C/C(=O)/C=C/c1cccc(N2CCOCC2)c1`, the “inhibition (INH)” value in data set [1] came out at 71.53%. The percent cell viability relative to control at 50 µM in data set [2] came to 69.5%.
Regarding `COc1cccc(OC)c1C(=O)C1OC1c1ccc(C)cc1` (stereo unspecified), the “inhibition (INH)” value in data set [1] was found to be 35.03%. Besides, the percent cell viability relative to control at 50 µM in data set [2] came out at 62.5%.
Take `COc1cccc(OC)c1C(=O)C1OC1c1ccc([N+](=O)[O-])cc1` (stereo unspecified): in data set [1], the “inhibition (INH)” value came out at 13.17%. For the same molecule, the percent cell viability relative to control at 50 µM in data set [2] amounted to 61%.
`COc1cccc(OC)c1C(=O)N/N=C/c1nc(C)c(C)nc1C`: the “inhibition (INH)” value in data set [1] is on record as 62.26%. The percent cell viability relative to control at 50 µM in data set [2] was found to be 85%.
With `COc1cccc(OC)c1/C=C/C(=O)/C=C/c1ccc(C(C)(C)C)cc1`, the “inhibition (INH)” value in data set [1] was 72.89%. Moreover, in data set [2], the percent cell viability relative to control at 50 µM was found to be 86%.
Take `COc1ccc(/C=C/C(=O)/C=C/c2c(OC)cccc2OC)cc1-c1ccccc1`: in data set [1], the “inhibition (INH)” value is on record as 35.03%. Further, in data set [2], the percent cell viability relative to control at 50 µM amounted to 85%.
In the case of `COc1cccc(OC)c1C(=O)C1OC1c1ccc(C(C)(C)C)cc1` (stereo unspecified), the “inhibition (INH)” value in data set [1] came to 28.99%. In data set [2], the percent cell viability relative to control at 50 µM was 85.8%.
In the case of `COc1cccc(OC)c1/C=C/C(=O)/C=C/c1c(C)cc(-c2ccccc2)cc1C`, the “inhibition (INH)” value in data set [1] is recorded as 27.71%. The percent cell viability relative to control at 50 µM in data set [2] was 108%.
With `COc1cccc(OC)c1/C=C1\CCC/C(=C\c2ccc(C)cc2)C1=O`, in data set [1], the “inhibition (INH)” value worked out at 46.7%. For the same molecule, the percent cell viability relative to control at 50 µM in data set [2] came out at 67.2%.
In the same order, the values of `COc1cccc(OC)c1/C=C/C(=O)/C=C/c1ccc([N+](=O)[O-])cc1` are 70.62% and 99.5%.
As for `COc1cccc(OC)c1/C=C/C(=O)/C=C/c1ccc(N2CCCC2)cc1`, in data set [1], the “inhibition (INH)” value was found to be 62.89%. The percent cell viability relative to control at 50 µM in data set [2] amounted to 133%.
`COc1cccc(OC)c1/C=C/C(=O)/C=C/c1ccc(-c2ccccc2)cc1C`: the “inhibition (INH)” value in data set [1] is listed as 23.04%. The percent cell viability relative to control at 50 µM in data set [2] is 110%.
In the same order, the values of `COc1cccc(OC)c1/C=C/C(=O)/C=C/c1ccc(-c2ccccc2)c(C)c1` are 58.93% and 113%.
`COc1cccc(OC)c1/C=C/C(=O)/C=C/c1ccccc1N1CCOCC1`: the “inhibition (INH)” value in data set [1] is recorded as 73.17%. Moreover, the percent cell viability relative to control at 50 µM in data set [2] was determined as 63.3%.
In the case of `COc1cccc(OC)c1C(=O)CCc1nc(C)c(C)nc1C`, in data set [1], the “inhibition (INH)” value worked out at 18.14%. Moreover, the percent cell viability relative to control at 50 µM in data set [2] came to 71%.
In the same order, the values of `COc1cccc(OC)c1/C=C/C(=O)/C=C/c1ccc(-c2nccs2)cc1` are 60.3% and 106%.
Turning to `COc1cccc(OC)c1/C=C1\CCC/C(=C\c2ccc(C(C)(C)C)cc2)C1=O`, the “inhibition (INH)” value in data set [1] came to 57.57%. The percent cell viability relative to control at 50 µM in data set [2] amounted to 61.1%.
With `COc1cccc(OC)c1C(=O)C1OC1c1ccccn1` (stereo unspecified), in data set [1], the “inhibition (INH)” value is 27.71%. Further, in data set [2], the percent cell viability relative to control at 50 µM came out at 71.8%.
On to `COc1cccc(OC)c1C(=O)CCc1ccccn1`, for which the “inhibition (INH)” value in data set [1] is 27.71%. Moreover, in data set [2], the percent cell viability relative to control at 50 µM turned out to be 74.6%.
For the molecule `COc1cccc(OC)c1/C=C1\CCC/C(=C\c2ccccn2)C1=O`, the “inhibition (INH)” value in data set [1] was 25.98%. In addition, the percent cell viability relative to control at 50 µM in data set [2] was 85%.
Regarding `COc1cccc(OC)c1/C=C/C(=O)/C=C/c1ccc(N2CCCCC2)cc1`, the “inhibition (INH)” value in data set [1] is on record as 60.7%. In addition, in data set [2], the percent cell viability relative to control at 50 µM amounted to 110%.
For `COc1cccc(OC)c1/C=C/C(=O)/C=C/c1ccc(-c2ccccc2)cc1`, the “inhibition (INH)” value in data set [1] amounted to 51.69%. Further, the percent cell viability relative to control at 50 µM in data set [2] turned out to be 104%.
As to `COc1ccc(/C=C/C(=O)/C=C/c2c(OC)cccc2OC)cc1`, the “inhibition (INH)” value in data set [1] was found to be 26.89%. In data set [2], the percent cell viability relative to control at 50 µM was 108%.
Consider `COc1cccc(OC)c1/C=C/C(=O)/C=C/c1ccc(-n2ccnc2)cc1`, for which, in data set [1], the “inhibition (INH)” value is listed as 18.14%. The percent cell viability relative to control at 50 µM in data set [2] was found to be 106%.
`COc1cccc(OC)c1C(=O)N/N=C/c1ccc(C)cc1`: the “inhibition (INH)” value in data set [1] stood at 47.74%. In data set [2], the percent cell viability relative to control at 50 µM was found to be 61.2%.
As to `CCCOc1ccc(/C=C/C(=O)/C=C/c2c(OC)cccc2OC)cc1`, the “inhibition (INH)” value in data set [1] came out at 41.16%. Moreover, in data set [2], the percent cell viability relative to control at 50 µM stood at 149%.
In the case of `COc1cccc(OC)c1/C=C/C(=O)/C=C/c1ccc(-n2cccn2)cc1`, in data set [1], the “inhibition (INH)” value is 37.85%. Besides, the percent cell viability relative to control at 50 µM in data set [2] stood at 104%.
Turning to `COc1cccc(OC)c1/C=C/C(=O)/C=C/c1ccccn1`, the “inhibition (INH)” value in data set [1] was 70.92%. For the same molecule, in data set [2], the percent cell viability relative to control at 50 µM is 110%.
`COc1cccc(OC)c1C(=O)N/N=C/c1ccc([N+](=O)[O-])cc1`: in data set [1], the “inhibition (INH)” value is on record as 50.3%. The percent cell viability relative to control at 50 µM in data set [2] is 71.7%.
For the molecule `COc1cccc(OC)c1C(=O)N/N=C/c1ccccn1`, in data set [1], the “inhibition (INH)” value was found to be 13.78%. Also, the percent cell viability relative to control at 50 µM in data set [2] amounted to 81.9%.
For `COc1cccc(OC)c1/C=C1\CCC/C(=C\c2nc(C)c(C)nc2C)C1=O` the same measures were 57.06% and 72.4%.
For `COc1cccc(OC)c1/C=C/C(=O)/C=C/c1ccc(C)cc1`, the “inhibition (INH)” value in data set [1] is listed as 70.3%. The percent cell viability relative to control at 50 µM in data set [2] was 97.3%.
In the case of `COc1cccc(OC)c1C(=O)CCc1ccc([N+](=O)[O-])cc1`, the “inhibition (INH)” value in data set [1] is listed as 2.26%. For the same molecule, in data set [2], the percent cell viability relative to control at 50 µM is 61%.
For `COc1cccc(OC)c1C(=O)C1OC1c1nc(C)c(C)nc1C` (stereo unspecified) the same measures were 5.53% and 64.6%.
In the case of `COc1cccc(OC)c1C(=O)CCc1ccc(C)cc1`, the “inhibition (INH)” value in data set [1] stood at 29.55%. In data set [2], the percent cell viability relative to control at 50 µM was 65%.
For the molecule `COc1cc(/C=C/C(=O)/C=C/c2c(OC)cccc2OC)ccc1-c1ccccc1`, the “inhibition (INH)” value in data set [1] is 54.77%. Besides, in data set [2], the percent cell viability relative to control at 50 µM was 126%.
Regarding `COc1cccc(OC)c1C(=O)CCc1ccc(C(C)(C)C)cc1`, the “inhibition (INH)” value in data set [1] was 13.17%. In data set [2], the percent cell viability relative to control at 50 µM was 96.4%.
